From patent US10011638B2, “PTEN antagonist peptides and methods of using the same” (SHRINERS HOSPITALS FOR CHILDREN, priority 2014, dated 2018)
Read-outs that look alike come from different tables or passages of the source.

Legend:
[1] = molecular target: T1, PTEN (Homo sapiens, UniProt P60484); experiment: PTEN peptide binding assay in COS-7 cells; conditions: biotinylated peptides 15 μM, 1 hour; ABC-DAB, 405 nm; compared to BioRP
T1 construct: host or cells: COS-7
Experimental: COS-7 cells were cultured as previously reported (29). Forty-eight hrs after transfection, cells were incubated with purified biotinylated RP or PAPs 1-4 (15 μM) for 1 hour. Following 3 washes with PBS and fixation with 4% formaldehyde, COS-7 cells were incubated in ABC and the PAP binding signals were visualized with ABC-DAB based color reactions. The intensity of reaction color in multiple wells was read with a 96-well plate reader at 405 nm. The binding experiments were carried out in 6-12 replicates.

[2] = system: DRG neurons; experiment: Neurite outgrowth of adult DRG neurons on CNS myelin spots; assay type: cell-based, mice; conditions: chosen from dose-response curve of neurite outgrowth assays of DRGs on CNS myelin
Experimental: (§1) Neurite outgrowth from neurons was performed in DRG and CGN cultures 1-5 days after growth. For DRG assay on myelin spots, the center of each culture coverslip was spotted with 2 μl of purified CNS myelin (200 μg/ml), which contains a number of axon growth inhibitors (11). DRGs were dissected out from C57BL/6 mice aged 8-10 weeks. After incubation with collagenase and 0.25% trypsin, dissociated DRG neurons were plated onto plastic coverslips in 24-well plates and grown in culture medium as previously reported (25, 48). Primary CGN cultures were prepared from cerebelli of postnatal 7-9 day C57BL/6 mice as reported previously (25, 29).
(§2) After plating, dissociated neurons were treated with vehicle, RP (10 μg/ml), PAP1 (2.5 μg/ml), PAP2 (10 μg/ml), PAP3 ([…]), PAP4 (6.7 μg/ml) and PAP5 (5 μg/ml). The doses of PAPs were chosen based on the dose-response curve obtained from neurite outgrowth assays of DRGs on CNS myelin. Neurons were fixed 5 days (DRGs) or 24 hrs (CGNs) after plating and stained for Tuj1. Images of each culture were captured with a Nikon image collecting system and neurite outgrowth was quantified with Photoshop and NIH image software (25). The total neurite length of DRGs per myelin spot was determined from 5-8 representative experiments. The neurite length of CGNs was measured as previously reported (25, 29). To determine the cellular distribution of PTEN, DRGs were stained with anti-PTEN and anti-Tuj1l antibodies in selected coverslips.

[3] = system: SCI rats; conditions: cited from earlier work
[4] = system: mice with T7 dorsal over-hemisection; experiment: Locomotor recovery after T7 dorsal over-hemisection SCI (BMS, grid walk, footprint); assay type: in vivo; conditions: vs RP; for locomotor recovery, BMS scores: s.c. 71 μg/mouse/day, 14 days, 2-5 weeks after SCI
Experimental: (§3) Adult female C57BL/6 mice (9-10 weeks old) were deeply anesthetized with intramuscular ketamine (100 mg/kg) and intraperitoneal xylazine (15 mg/kg). A complete laminectomy was performed and the dorsal part of the spinal cord was fully exposed at T6 and T7 levels (31). A dorsal over-hemisection (1.0 mm) was performed at T7 with a 30 gauge needle and a pair of microscissors to completely sever dorsal part of the spinal cord as previously reported (29, 31). To study axon growth (FIG. 5-7), mice received daily subcutaneous injections of RP, PAP2 or PAP4 at 71 μg/mouse/day beginning two days after SCI for 14 successive days (29). Mice received BDA tracer injections into the motor cortex 3 weeks after SCI (31).
(§4) Mice were perfused 5 weeks after SCI and the spinal cord blocks around the lesion were processed for 5-HT and CST labeling. In brief, transverse sections (30 μm) 5-7 mm rostral to and caudal to the injury and parasagittal sections 4 mm rostral to and 4 mm caudal to lesion were processed for 5-HT-stained serotonergic fibers and BDA-labeled CST axons. To compare axon number among different groups, 5-HT axons were counted in the spinal cord 0-3.2 mm caudal to the lesion from all parasagittal sections in each animal. To determine functional recovery, locomotion recovery was evaluated during 5 weeks of survival by measuring the BMS two days and per week after SCI, and the grid walk performance and footprint 5 weeks after SCI. For axon quantification and behavioral analysis, 8, 9, and 9 mice were used in the RP, PAP2 and PAP4 groups, respectively.

[5] = system: mice with T7 dorsal over-hemisection; experiment: Growth of 5-HT and CST fiber tracts after T7 dorsal over-hemisection SCI; assay type: in vivo; conditions: s.c. 71 μg/mouse/day, 5 weeks after SCI; for density of 5-HT fibers in the spinal cord 5-7 mm caudal to the lesion: 14 days from 2 days after SCI, vs RP; for CST sprouts immediately rostral to the lesion (parasagittal sections) / density of ectopic CST sprouts lateral to the dorsal CST, 5-7 mm rostral to the lesion / growth of CST sprouts caudal to the lesion: 14 days
Experimental: as §3, §4

[6] = system: CGNs; experiment: Neurite outgrowth of cerebellar granular neurons (CGNs) on CNS myelin; assay type: cell-based, mice; conditions: 24 hrs after plating; myelin 50 μg/ml; compared to vehicle
Experimental: as §1
as §2, with “To determine the cellular distribution of PTEN, DRGs were stained with anti-PTEN and anti-Tuj1l antibodies in selected coverslips.” left out

T1 sequence (P60484 whole entry, species assumed): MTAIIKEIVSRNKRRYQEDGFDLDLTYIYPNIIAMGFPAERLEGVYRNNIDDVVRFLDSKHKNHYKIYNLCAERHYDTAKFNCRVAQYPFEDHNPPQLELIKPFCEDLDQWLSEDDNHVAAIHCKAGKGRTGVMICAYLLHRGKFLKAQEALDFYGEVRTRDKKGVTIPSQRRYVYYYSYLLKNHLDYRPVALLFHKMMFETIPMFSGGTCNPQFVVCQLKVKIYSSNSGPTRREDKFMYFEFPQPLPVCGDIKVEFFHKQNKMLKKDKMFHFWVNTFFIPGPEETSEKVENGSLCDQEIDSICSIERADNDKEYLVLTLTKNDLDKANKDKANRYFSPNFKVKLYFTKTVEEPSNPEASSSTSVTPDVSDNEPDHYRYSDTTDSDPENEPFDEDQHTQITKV

Substance	peptide binding to COS-7 cells transfected with PTEN [1]	Optimal dose [2]	locomotor recovery, BMS scores [4]	density of 5-HT fibers in the spinal cord 5-7 mm caudal to the lesion [5]	CST sprouts immediately rostral to the lesion (parasagittal sections) [5]	density of ectopic CST sprouts lateral to the dorsal CST, 5-7 mm rostral to the lesion [5]	growth of CST sprouts caudal to the lesion [5]	further results
IHCKAGKGRTGVMIC [PAP3]	higher binding affinity than PAP2	5 µg/mL	–	–	–	–	–	–
bisperoxovanadium [bpV]	–	–	–	–	–	–	–	functional recovery ([3]; intrathecal): improved functional recovery; functional recovery ([3]; systemic): improved functional recovery; levels of phosphorylated Akt and S6 in the lesioned spinal cord ([3]; systemic): elevated the levels of phosphorylated Akt and S6
TVEEPSNPEASSSTSVTPD [PAP4]	higher binding affinity than PAP2	5 µg/mL	improve locomotor recovery	significantly increased	very high density	Increased density	terminated rostral to the lesion epicenter	stride length of the hindpaws ([4]; footprints 5 weeks after injury): enhanced stride length
PENEPFDEDQHSQITKV [PAP5]	–	5 µg/mL	–	–	–	–	–	neurite length of CGNs cultured on CNS myelin [6]: but not with PAP5, significantly increased
MTAIIKEIVSRNKRR [PAP1]	higher binding affinity than PAP2	2.5 µg/mL	–	–	–	–	–	–
KHKNHYKIYNLCAE [PAP2]	–	10 µg/mL	improve locomotor recovery	significantly increased	higher density	Increased density	A small number of CST sprouts grew into the distal spinal cord	–
